Like-named read-outs stand apart in the source and are kept apart here.

What is called EC50 is the concentration needed to bring the measured effect to its halfway point.

Holding throughout (format): cell-based
One test has as its system Huh7 cells. The test can be described thus: LD content in Huh7 cells pre-treated with insulin, Oil-Red-O staining, absorbance OD 540 nm. Particulars: procedure of Example 3, read-out: LD content inhibition (EC50). An outline of the steps: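 Huh7 cells, mock-treated or pre-treated with 1 mM insulin, were then exposed to compound at the indicated amounts. Lipid droplets stained with Oil Red O and quantified by absorbance at OD 540 nm.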

Another test concerns SREBP-1. The test is described as follows: SREBP-1 expression in cultured primary human hepatocytes. Particulars: procedure of Example 6, read-out: SREBP-1 mRNA inhibition (EC50). A digest of the protocol: (§1)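 Primary human hepatocytes in culture exposed to a range of HPN-01 derivative concentrations; SREBP-1 and SREBP-2 mRNA expression then measured to assess inhibition.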
The subject of a further test is SREBP-2. The test is described as follows: SREBP-2 expression in cultured primary human hepatocytes. Particulars: procedure of Example 6, read-out: SREBP-2 mRNA inhibition (EC50). An outline of the steps:
as §1

[1] abbreviates: Homo sapiens, Huh-7, Huh7 cells.

Consider `NC(=O)c1cc(-c2ccc(Cl)cc2)cc(-c2ccc(S(N)(=O)=O)cc2)c1NCCc1ccccc1` [HPN-01534, 4-chloro-4′-(phenethylamino)-4″-sulfamoyl-[1,1′:3′,1″-terphenyl]-5′-carboxamide], for which the EC50 in the test with Huh7 cells (setting [1]) is 1110 nM; in the test on SREBP-1 (Homo sapiens, Hepatocyte), 2920 nM; in the test on SREBP-2 (Homo sapiens, Hepatocyte) it was 6790 nM.
As to `NCCC(=O)Nc1c(C(N)=O)cc(-c2ccc(Br)cc2)cc1-c1ccc(S(N)(=O)=O)cc1` [HPN-01514, 4′-(3-aminopropanamido)-4-bromo-4″-sulfamoyl-[1,1′:3′,1″-terphenyl]-5′-carboxamide], the concentration for a half-maximal effect (EC50) with Huh7 cells (setting [1]) stood at 1150 nM; in the test with SREBP-1 (Homo sapiens, Hepatocyte), 2830 nM; in the test on SREBP-2 (Homo sapiens, Hepatocyte), 5100 nM.
For `NC(=O)c1cc(-c2ccc(Cl)cc2)cc(NCCc2ccc(S(N)(=O)=O)cc2)c1N` [HPN-01425, 4-amino-4′-chloro-5-((4-sulfamoylphenethyl)amino)-[1,1′-biphenyl]-3-carboxamide] the same measures were 6480 nM, 2830 nM and 3440 nM.
Take `NCCC(=O)Nc1c(C(N)=O)cc(-c2ccc(Cl)cc2)cc1-c1ccc(S(N)(=O)=O)cc1` [HPN-01530, 4′-(3-aminopropanamido)-4-chloro-4″-sulfamoyl-[1,1′:3′,1″-terphenyl]-5′-carboxamide]: the results for the half-maximal effective concentration (EC50) in the test on Huh7 cells (Huh7 cells), in the test with SREBP-1 and in the test on SREBP-2 were 460 nM, 3940 nM and 9400 nM, respectively.
Take `NC(=O)c1cc(-c2ccc(Br)cc2)cc(Nc2ccc(S(N)(=O)=O)cc2)c1N` [HPN-01404, 4-amino-4′-bromo-5-((4-sulfamoylphenyl)amino)-[1,1′-biphenyl]-3-carboxamide]: the EC50 with Huh7 cells (setting [1]) turned out to be 640 nM; in the test with SREBP-1 (Homo sapiens, Hepatocyte) it was 1970 nM; in the test with SREBP-2 (Homo sapiens, Hepatocyte), 3390 nM.
On the same counts, the results for `Nc1c(C(=O)Nc2ccc(F)c(F)c2)cc(-c2ccc(Cl)cc2)cc1-c1ccc(S(N)(=O)=O)cc1` [HPN-01615, 4′-amino-4-chloro-N-(3,4-difluorophenyl)-4″-sulfamoyl-[1,1′:3′,1″-terphenyl]-5′-carboxamide] are 1150 nM, 6690 nM and 11700 nM.
Regarding `NCCC(=O)Nc1c(C(N)=O)cc(-c2ccc(Cl)cc2)cc1-c1ccc(S(N)(=O)=O)cc1` [HPN-01517, 4′-(3-aminopropanamido)-4-chloro-4″-sulfamoyl-[1, 1′:3′,1″-terphenyl]-5′-carboxamide], the EC50 was 480 nM in the test with Huh7 cells (setting [1]), 1960 nM with SREBP-1 and 2940 nM with SREBP-2.
`NC(=O)c1cc(-c2ccc(Cl)cc2)cc(N2CCN(S(N)(=O)=O)CC2)c1N` [HPN-01427, 4-amino-4′-chloro-5-(4-sulfamoylpiperazin-1-yl)-[1,1′-biphenyl]-3-carboxamide]: the EC50 in the test on Huh7 cells (setting [1]) stood at 1110 nM; with SREBP-1 (Homo sapiens, Hepatocyte), 3320 nM; in the test on SREBP-2 (Homo sapiens, Hepatocyte), 3830 nM.
On the same counts, the results for `Nc1c(C(=O)Nc2ccc(O)c(O)c2)cc(-c2ccc(Br)cc2)cc1-c1ccc(S(N)(=O)=O)cc1` [HPN-01618, 4′-amino-4-bromo-N-(3,4-dihydroxyphenyl)-4″-sulfamoyl-[1,1′:3′,1″-terphenyl]-5′-carboxamide] are 1430 nM, 3570 nM and 6370 nM.
As to `NC(=O)c1cc(/C=C/C(=O)OCCc2ccccc2)cc(-c2ccc(S(N)(=O)=O)cc2)c1N` [HPN-01123, phenethyl (E)-3-(6-amino-5-carbamoyl-4′-sulfamoyl-[1,1′-biphenyl]-3-yl)acrylate], the concentration for a half-maximal effect (EC50) in the test with Huh7 cells (setting [1]) came to 890 nM; in the test on SREBP-1 (Homo sapiens, Hepatocyte), 3450 nM; in the test on SREBP-2 (Homo sapiens, Hepatocyte) it was 4450 nM.
With `NCC(=O)Nc1c(C(N)=O)cc(-c2ccc(Cl)cc2)cc1-c1ccc(S(N)(=O)=O)cc1` [HPN-01504, 4′-(2-aminoacetamido)-4-chloro-4″-sulfamoyl-[1,1′:3′,1″-terphenyl]-5′-carboxamide], the EC50 with Huh7 cells (setting [1]) was found to be 460 nM; in the test on SREBP-1 (Homo sapiens, Hepatocyte) it was 730 nM; with SREBP-2 (Homo sapiens, Hepatocyte) it was 1110 nM.
As to `CC(=O)Nc1ccc(/C=C/c2cc(C(N)=O)c(N)c(-c3ccc(S(N)(=O)=O)cc3)c2)cc1` [HPN-01106, (E)-5-(4-acetamidostyryl)-2-amino-4′-sulfamoyl-[1,1′-biphenyl]-3-carboxamide], the half-maximal effective concentration (EC50) with Huh7 cells (setting [1]) was 2850 nM; in the test on SREBP-1 (Homo sapiens, Hepatocyte) it was 6350 nM; with SREBP-2 (Homo sapiens, Hepatocyte) it was 6450 nM.
For `NC(=O)c1cc(-c2ccc(Cl)nc2)cc(-c2ccc(S(N)(=O)=O)cc2)c1N` [HPN-01307, 2-amino-5-(6-chloropyridin-3-yl)-4′-sulfamoyl-[1,1′-biphenyl]-3-carboxamide] the same measures were 1360 nM, 5680 nM and 4590 nM.
“butyl (E)-3-(6-amino-5-carbamoyl-4′-sulfamoyl-[1,1′-biphenyl]-3-yl)acrylate [HPN-01117]”: the half-maximal effective concentration (EC50) is 1150 nM in the test with Huh7 cells (Huh7 cells), 6990 nM in the test on SREBP-1 and 8240 nM in the test on SREBP-2.
As to `NC(=O)c1cc(Oc2cccc(Cl)c2)cc(-c2ccc(S(N)(=O)=O)cc2)c1N` [HPN-01316, 2-amino-5-(3-chlorophenoxy)-4′-sulfamoyl-[1,1′-biphenyl]-3-carboxamide], the half-maximal effective concentration (EC50) stood at 5920 nM in the test on Huh7 cells (setting [1]); 8020 nM in the test on SREBP-1 (Homo sapiens, Hepatocyte); 11200 nM in the test with SREBP-2 (Homo sapiens, Hepatocyte).
In the case of `CC(=O)Oc1cccc(/C=C/c2cc(C(N)=O)c(N)c(-c3ccc(S(N)(=O)=O)cc3)c2)c1` [HPN-01110, (E)-3-(2-(6-amino-5-carbamoyl-4′-sulfamoyl-[1,1′-biphenyl]-3-yl)vinyl)phenyl acetate], the half-maximal effective concentration (EC50) in the test with Huh7 cells (setting [1]) amounted to 810 nM; in the test on SREBP-1 (Homo sapiens, Hepatocyte) it was 2260 nM; in the test on SREBP-2 (Homo sapiens, Hepatocyte), 3600 nM.
Turning to “(E)-2-amino-5-(3-((4-methoxyphenyl)amino)-3-oxoprop-1-en-1-yl)-4′-sulfamoyl-[1,1′-biphenyl]-3-carboxamide [HPN-01128]”, the EC50 was 890 nM with Huh7 cells (Huh7 cells), 2400 nM in the test with SREBP-1 and 3470 nM in the test with SREBP-2.
Consider `Nc1c(C(=O)NCc2cccnc2)cc(-c2ccc(Cl)cc2)cc1-c1ccc(S(N)(=O)=O)cc1` [HPN-01630, 4′-amino-4-chloro-N-(pyridin-3-ylmethyl)-4″-sulfamoyl-[1,1′:3′,1″-terphenyl]-5′-carboxamide], for which the 50% effective concentration (EC50) with Huh7 cells (setting [1]) stood at 2390 nM; with SREBP-1 (Homo sapiens, Hepatocyte), 3570 nM; in the test with SREBP-2 (Homo sapiens, Hepatocyte) it was 3870 nM.
As to `NC(=O)c1cc(/C=C/C(=O)Nc2ccc(O)cc2)cc(-c2ccc(S(N)(=O)=O)cc2)c1N` [HPN-01122, (E)-2-amino-5-(3-((4-hydroxyphenyl)amino)-3-oxoprop-1-en-1-yl)-4′-sulfamoyl-[1,1′-biphenyl]-3-carboxamide], the EC50 in the test on Huh7 cells (setting [1]) was 2440 nM; in the test with SREBP-1 (Homo sapiens, Hepatocyte) it was 9610 nM; in the test on SREBP-2 (Homo sapiens, Hepatocyte), 7290 nM.
Consider `NC(=O)c1cc(C#Cc2ccccc2)cc(-c2ccc(S(N)(=O)=O)cc2)c1N` [HPN-01202, 2-amino-5-(phenylethynyl)-4′-sulfamoylbiphenyl-3-carboxamide], for which the EC50 in the test on Huh7 cells (setting [1]) worked out at 290 nM; in the test with SREBP-1 (Homo sapiens, Hepatocyte), 640 nM; in the test on SREBP-2 (Homo sapiens, Hepatocyte), 900 nM.
For `CC(C)OC(=O)c1ccc(-c2cc(C(N)=O)c(N)c(-c3ccc(S(N)(=O)=O)cc3)c2)cc1` [HPN-01303, isopropyl 4′-amino-5′-carbamoyl-4″-sulfamoyl-[1,1′:3′,1″-terphenyl]-4-carboxylate] the same measures were 1300 nM, 6620 nM and 10500 nM.
For `NC(=O)c1cc(C#Cc2ccc(Br)cc2)cc(-c2ccc(S(N)(=O)=O)cc2)c1N` [HPN-01207, 2-amino-5-((4-bromophenyl)ethynyl)-4′-sulfamoyl-[1,1′-biphenyl]-3-carboxamide] the same measures were 980 nM, 1940 nM and 2730 nM.
`NC(=O)c1cc(C#CCO)cc(-c2ccc(S(N)(=O)=O)cc2)c1N` [HPN-01201, 2-amino-5-(3-hydroxyprop-1-ynyl)-4′-sulfamoylbiphenyl-3-carboxamide]: the 50% effective concentration (EC50) stood at 1200 nM in the test on Huh7 cells (setting [1]); 3160 nM with SREBP-1 (Homo sapiens, Hepatocyte); 6850 nM in the test with SREBP-2 (Homo sapiens, Hepatocyte).
As to “methyl (E)-3-(6-amino-4′-(amino-(methylene)sulfinyl)-5-carbamoyl-[1,1′-biphenyl]-3-yl)acrylate [HPN-01114]”, the values for the concentration for a half-maximal effect (EC50) with Huh7 cells (Huh7 cells), with SREBP-1 and with SREBP-2 were 210 nM, 1270 nM and 2470 nM, respectively.
For the compound `CCC(=O)Nc1ccc(-c2cc(-c3ccc(Cl)cc3)cc(C(N)=O)c2N)cc1` [HPN-01408, 4′-amino-4-chloro-4″-propionamido-[1,1′:3′,1″-terphenyl]-5′-carboxamide], the half-maximal effective concentration (EC50) in the test with Huh7 cells (setting [1]) is 1500 nM; in the test with SREBP-1 (Homo sapiens, Hepatocyte) it was 2550 nM; in the test on SREBP-2 (Homo sapiens, Hepatocyte) it was 4370 nM.
On the same counts, the results for `NC(=O)c1cc(-c2ccc(Cl)cc2)cc(-c2ccc(S(N)(=O)=O)cc2)c1NC(=O)C1CC1` [HPN-01503, 4-chloro-4′-(cyclopropanecarboxamido)-4″-sulfamoyl-[1,1′:3′,1″-terphenyl]-5′-carboxamide] are 700 nM, 3940 nM and 6480 nM.
For `Nc1c(C(=O)Nc2cccc(F)c2)cc(-c2ccc(Cl)cc2)cc1-c1ccc(S(N)(=O)=O)cc1` [HPN-01613, 4′-amino-4-chloro-N-(3-fluorophenyl)-4″-sulfamoyl-[1,1′:3′,1″-terphenyl]-5′-carboxamide], the 50% effective concentration (EC50) stood at 1370 nM in the test with Huh7 cells (setting [1]); 1550 nM with SREBP-1 (Homo sapiens, Hepatocyte); 2200 nM in the test on SREBP-2 (Homo sapiens, Hepatocyte).
As for `COc1ccc(C(=O)OCC#Cc2cc(C(N)=O)c(N)c(-c3ccc(S(N)(=O)=O)cc3)c2)cc1` [HPN-01218, 3-(6-amino-5-carbamoyl-4′-sulfamoyl-[1,1′-biphenyl]-3-yl)prop-2-yn-1-yl 4-methoxybenzoate], the EC50 in the test with Huh7 cells (setting [1]) was determined as 990 nM; in the test on SREBP-1 (Homo sapiens, Hepatocyte), 4540 nM; in the test with SREBP-2 (Homo sapiens, Hepatocyte), 6510 nM.

(Values after patent US11000491B2, “Amino-aryl-benzamide compounds and methods of use thereof” (HEPANOVA, INC., priority 2017, dated 2021).)
